Laboratory results reported in ChEMBL document CHEMBL5154725, “SAR evolution towards potent C-terminal carboxamide peptide inhibitors of Zika virus NS2B-NS3 protease” (Bioorg Med Chem, 2022).
pIC50: −log10 of the molar value. Non-standard residues stand in square brackets, D forms with d. Residues, ends and D or L forms follow the SMILES beside them. *: point of attachment. Phe(4-NH2) = Nc1ccc(C[C@H](N)C(=O)O)cc1; AEF = NCCOc1ccc(C[C@H](N)C(=O)O)cc1; Lys(Me2) = CN(C)CCCC[C@H](N)C(=O)O; NHPhenethyl = c1ccc(CCN*)cc1; Dab = NCC[C@H](N)C(=O)O; PhAc = O=C(Cc1ccccc1)*

test: Inhibition of 6-His tagged-G4SG4 fused ZIKV NS2B (49 to 95 residues) R95A mutant-NS3 (1 to 170 residue) R29G mutant expressed in Escherichia coli BL21 (DE3) using Bz-Nle-K-RR-AMC substrate preincubated for 10 mins followed by substrate addition and measured after 30 mins by fluorescence assay; parameters: species or system Zika virus

Compound	pIC50
NCCCC[C@H](NC(=O)Cc1ccccc1)C(=O)N[C@@H](CCCCN)C(=O)N[C@H](C(=O)NCc1ccccc1)c1ccc(OCc2ccc(C(F)(F)F)cc2)cc1	7.05
NCCCC[C@H](NC(=O)Cc1ccc(Cl)c(Cl)c1)C(=O)N[C@@H](CCCCN)C(=O)N[C@H](C(=O)NCc1ccc(OCc2ccc(C(F)(F)F)cc2)cc1)c1ccccc1	6.77
CN(C)CCOc1ccc([C@H](NC(=O)[C@H](CCCCN)NC(=O)[C@H](CCCNC(=N)N)NC(=O)c2cccs2)C(N)=O)cc1	5.26
N=C(N)NCCC[C@H](NC(=O)[C@H](CCCCN)NC(=O)[C@H](CCCCN)NC(=O)Cc1ccc(Cl)c(Cl)c1)C(N)=O	5.91
NCCCC[C@H](NC(=O)Cc1ccncc1)C(=O)N[C@@H](CCCCN)C(=O)N[C@H](C(=O)NCc1ccccc1)c1ccc(OCc2ccc(C(F)(F)F)cc2)cc1	7.16
CNC(=O)[C@@H](NC(=O)[C@H](CCCCN)NC(=O)[C@H](CCCCN)NC(=O)Cc1ccccc1)c1ccc(OCc2ccc(C(F)(F)F)cc2)cc1	5.55
N=C(N)NCCC[C@H](NC(=O)[C@H](CCCCN)NC(=O)[C@H](CCCCN)NC(=O)Cc1ccccc1)C(=O)NCc1cccnc1	4.98
N=C(N)NCCC[C@H](NC(=O)[C@H](CCCCN)NC(=O)[C@H](CCCCN)NC(=O)Cc1ccncc1)C(N)=O	5.28
CN(C)Cc1ccc(CNC(=O)[C@H](CCCNC(=N)N)NC(=O)[C@H](CCCCN)NC(=O)[C@H](CCCCN)NC(=O)Cc2ccccc2)cc1	5.55
N=C(N)NCCC[C@H](NC(=O)c1cccs1)C(=O)N[C@@H](CCCCN)C(=O)N[C@H](C(N)=O)c1ccc(OCc2ccc3[nH]ncc3c2)cc1	5.28
N=C(N)NCCC[C@H](NC(=O)[C@H](CCCCN)NC(=O)[C@H](CCCCN)NC(=O)Cc1ccccc1)C(=O)NCc1ccncc1	4.85
NCCCC[C@H](NC(=O)Cc1ccccc1)C(=O)N[C@@H](CCCCN)C(=O)N[C@H](C(=O)NCCc1ccccc1)c1ccc(OCc2ccc(C(F)(F)F)cc2)cc1	6.21
N=C(N)NCCC[C@H](NC(=O)[C@H](Cc1ccc(OCCN)cc1)NC(=O)[C@H](CCCCN)NC(=O)Cc1ccccc1)C(N)=O (PhAc-Lys-[AEF]-Arg-NH2)	< 4.00
N=C(N)NCCC[C@H](NC(=O)[C@H](CCCCN)NC(=O)[C@H](CCCCN)NC(=O)Cc1ccccc1)C(=O)NCC1CCCCC1	5.74
N=C(N)NCCC[C@H](NC(=O)[C@H](CCCCN)NC(=O)[C@H](CCCCN)NC(=O)Cc1ccccc1)C(=O)NCCc1ccccc1 (PhAc-Lys-Lys-Arg-NHPhenethyl)	4.94
NCCCC[C@H](NC(=O)Cc1ccccc1)C(=O)N[C@@H](CCCCN)C(=O)N[C@H](C(=O)Nc1ccccc1)c1ccc(OCc2ccc(C(F)(F)F)cc2)cc1	5.47
N=C(N)NCC[C@H](NC(=O)[C@H](CCCCN)NC(=O)[C@H](CCCCN)NC(=O)Cc1ccc(Cl)c(Cl)c1)C(=O)NCC1CCCCC1	5.77
N=C(N)NCCC[C@H](NC(=O)c1cccs1)C(=O)N[C@@H](CCCCN)C(=O)N[C@H](C(N)=O)c1ccc(OC2CCc3ccccc32)cc1 (mixture of isomers)	5.19
N=C(N)NCCC[C@H](NC(=O)c1cccs1)C(=O)N[C@@H](CCCCN)C(=O)N[C@H](C(N)=O)c1ccc(OCCc2ccccc2)cc1	5.03
NCCCC[C@H](NC(=O)Cc1ccccc1)C(=O)N[C@@H](CCCCN)C(=O)N[C@@H](C(N)=O)c1ccccc1	4.82
N=C(N)NCCC[C@H](NC(=O)c1cccs1)C(=O)N[C@@H](CCCCN)C(=O)NCc1ccc(OCc2ccc(C(F)(F)F)cc2)cc1	5.09
N=C(N)NCCC[C@H](NC(=O)[C@H](CCCCN)NC(=O)[C@H](CCCCN)NC(=O)Cc1cccnc1)C(N)=O	5.35

Compound	pIC50
NCCCC[C@H](NC(=O)Cc1ccccc1)C(=O)N[C@@H](CCCCN)C(=O)N[C@H](C(N)=O)c1ccc(OCc2ccc(C(F)(F)F)cc2)cc1	5.04
CN(C)CCCC[C@H](NC(=O)[C@H](CCCCN)NC(=O)Cc1ccccc1)C(=O)N[C@@H](CCCNC(=N)N)C(N)=O (PhAc-Lys-[Lys(Me2)]-Arg-NH2)	4.60
NCCCC[C@H](NC(=O)Cc1ccccc1)C(=O)N[C@@H](CCCCN)C(=O)N[C@H](C(=O)NCc1cccnc1)c1ccc(OCc2ccc(C(F)(F)F)cc2)cc1	6.55
NCCCC[C@H](NC(=O)Cc1ccccc1)C(=O)N[C@@H](CCCCN)C(=O)N[C@H](C(=O)NCc1cccc(OCc2ccc(C(F)(F)F)cc2)c1)c1ccccc1	6.62
N=C(N)NCCC[C@H](NC(=O)[C@H](CCCCN)NC(=O)[C@H](Cc1ccc(OCCN)cc1)NC(=O)Cc1ccccc1)C(N)=O (PhAc-[AEF]-Lys-Arg-NH2)	4.51
NCCCC[C@H](NC(=O)CC1CCCCC1)C(=O)N[C@@H](CCCCN)C(=O)N[C@H](C(=O)NCc1ccccc1)c1ccc(OCc2ccc(C(F)(F)F)cc2)cc1	6.82
CN1CCC(CNC(=O)[C@H](CCCNC(=N)N)NC(=O)[C@H](CCCCN)NC(=O)[C@H](CCCCN)NC(=O)Cc2ccccc2)CC1	5.11
NCCCC[C@H](NC(=O)Cc1ccc(Cl)c(Cl)c1)C(=O)N[C@@H](CCCCN)C(=O)N[C@H](C(=O)NCc1ccccc1)c1ccc(OCc2ccc(C(F)(F)F)cc2)cc1	6.77
NCCCC[C@H](NC(=O)c1ccccc1)C(=O)N[C@@H](CCCCN)C(=O)N[C@H](C(=O)NCc1ccccc1)c1ccc(OCc2ccc(C(F)(F)F)cc2)cc1	7.05
N=C(N)NCCC[C@H](NC(=O)[C@H](CC1CCNCC1)NC(=O)[C@H](CCCCN)NC(=O)Cc1ccccc1)C(N)=O	4.91
NCCCC[C@H](NC(=O)Cc1ccccc1)C(=O)N[C@@H](CCCCN)C(=O)N[C@H](C(=O)NCc1ccc(OCc2ccc(C(F)(F)F)cc2)cc1)c1ccccc1	6.85
NCCCC[C@H](NC(=O)Cc1ccccc1)C(=O)N[C@@H](CCCCN)C(=O)N[C@H](C(=O)NCC1CCCCC1)c1ccccc1	6.16
N=C(N)NCCC[C@H](NC(=O)[C@H](CCCCN)NC(=O)[C@H](CCCCN)NC(=O)Cc1nccs1)C(N)=O	4.64
N=C(N)CCCC[C@H](NC(=O)[C@H](CCCCN)NC(=O)[C@H](Cc1ccc(C(N)=O)cc1)NC(=O)Cc1ccccc1)C(N)=O	4.37
CC(NC(=O)[C@H](CCCCN)NC(=O)[C@H](CCCNC(=N)N)NC(=O)c1cccs1)c1ccc(OCc2ccc(C(F)(F)F)cc2)cc1 (mixture of isomers)	4.96
N=C(N)NCCC[C@H](NC(=O)c1cccs1)C(=O)N[C@@H](CCCCN)C(=O)N[C@H](C(N)=O)c1ccc(OCC2CCCCC2)cc1	4.96
N=C(N)NCCC[C@H](NC(=O)[C@H](CCN)NC(=O)[C@H](CCCCN)NC(=O)Cc1ccccc1)C(N)=O (PhAc-Lys-[Dab]-Arg-NH2)	6.35
NCCCC[C@H](NC(=O)Cc1ccccc1)C(=O)N[C@@H](CCCCN)C(=O)N[C@H](C(=O)NCc1ncco1)c1ccc(OCc2ccc(C(F)(F)F)cc2)cc1	5.82
NCCCC[C@H](NC(=O)Cc1ccccc1)C(=O)N[C@@H](CCCCN)C(=O)N[C@H](C(=O)NCc1ccccc1)c1ccccc1	6.26
N=C(N)NCCC[C@H](NC(=O)c1cccs1)C(=O)N[C@@H](CCCCN)C(=O)N[C@@H](C(N)=O)c1ccc(OCc2ccc(C(F)(F)F)cc2)cc1	5.80
N=C(N)NCCC[C@H](NC(=O)[C@H](Cc1ccc(N)cc1)NC(=O)[C@H](CCCCN)NC(=O)Cc1ccccc1)C(N)=O (PhAc-Lys-[Phe(4-NH2)]-Arg-NH2)	< 4.00
CN(Cc1ccccc1)C(=O)N[C@@H](CCCCN)C(=O)N[C@@H](CCCCN)C(=O)N[C@@H](CCCNC(=N)N)C(N)=O	5.13
